Format in all cases: in vivo
The test system of assay [1] is organophosphorous agent resistant two-spotted spider mites. Put plainly: Effect on Two-spotted Spider Mite (spray on kidney bean leaves). Conditions: 125 ppm, water dispersible powder of Formulation Example 1 sprayed, 17 female adults, 25° C., 65% humidity, 3 days. The procedure, abridged: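 Kidney bean first leaves bearing 17 adult female organophosphate-resistant mites were sprayed with a water-dispersible powder formulation at 125 ppm. Held 3 days at 25 °C, 65% humidity, then adult mortality scored; run in duplicate.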

Assay [2] concerns army worms. Put plainly: Effect on Army Worm (artificial feed test). The note with it: 10 μg of compound on 0.2 ml artificial feed, second instar, 25° C., 5 days. The procedure: Test feeds were prepared by filling plastic test tubes (capacity of 1.4 ml) with 0.2 ml of a commercial artificial feed (Insecta LFS, manufactured by Nosan Corporation). Each of 1% chemical compound solutions was prepared by using DMSO (containing 0.5% tween 20), which was then dropped into the surface of the feed in amount of 10 μg of the respective chemical compounds. 2 army worms, each of which was in the second instar, were inoculated into each of the test tubes, which were then sealed by their plastic caps. After they were left at 25° C. for 5 days, the rate of killed army worms and their feed consumptions were investigated. The test was repeated twice. […] 1-8, 1-9, 1-13, 1-15, 1-17, 1-22, 1-23, 1-27, 1-39, 1-45, 1-46, 1-59, 1-69, 1-72, 1-74, 1-75, 1-79, 1-80, 1-83, 1-95, 1-97, 1-981-100, 1-105, 1-108, 1-114, 1-133, 1-140, 1-147, 1-153, 1-165, 1-166, 1-181, 1-182, 1-183, 1-184, 1-187, 1-189, 1-190,

In assay [3] the test system is acaricide resistant citrus red mites. The assay is described as follows: Effect on Citrus Red Mite (spray on mandarin orange leaves). Conditions: 31 ppm, emulsifiable concentrate of Formulation Example 2 sprayed, 10 female adults, 25° C., 65% humidity. The procedure:
Effect on Citrus Red Mite
10 female adults of acaricide resistant citrus red mites were inoculated onto leaves of a mandarin orange placed on dishes, onto which each of liquid agents, diluted with water so as to adjust the respective concentration of the chemical compounds to 31 ppm according to the formulation of the emulsifiable concentrate shown in the aforementioned Formulation Example 2, was sprayed by using a rotating sparge tower. After they were left in a thermostatic chamber at 25° C. in 65% humidity for 3 days, and were then removed from the dishes, eggs laid for 3 days were investigated whether they could grow to adults or not on the eleventh day. As the results, the following chemical compounds killed 100% of the adults. 1-13, 1-15, 1-22, 1-27, 1-45, 1-54, 1-59, 1-63, 1-66, 1-69, 1-71, 1-72, 1-75, 1-80, 1-88, 1-89, 1-92, 1-93, 1-94, 1-97, 1-98, 1-100, 1-102, 1-105, 1-108, 1-133, 1-136, 1-142, 1-153, 1-181, 1-183, 1-186, 1-187, 1-188, 1-189, 1-190, 1-191,

16 molecules from patent publication US8101768B2, “Cyclic amine compound and pest control agent” (Nippon Soda Co., Ltd., priority 2004, dated 2012) can be followed below.

For the molecule `FC(F)(F)c1ccc(N2CCC(Oc3ccc(C(F)(F)F)cc3OCCCl)CC2)nc1` [1-140], in assay [1], the “rate of killed adults” value amounted to 100%. For the same molecule, the “killed 100% of the army worms, or inhibited their feed consumptions, in comparison with a solvent control area, to 10% or less (effective)” value in assay [2] is listed as “effective”.

On to `Cc1cc(OC(F)(F)F)ccc1OC1CCN(c2ccc(C(F)(F)F)cn2)CC1` [1-46], for which the “rate of killed adults” value in assay [1] amounted to 100%. In assay [2], the “killed 100% of the army worms, or inhibited their feed consumptions, in comparison with a solvent control area, to 10% or less (effective)” value is listed as “effective”. The matching figures for `COCOC(C)c1cc(C(F)(F)F)ccc1OC1CCN(c2ccc(C(F)(F)F)cn2)CC1` (stereo not drawn) [1-184]: 100% and “effective”. The matching figures for `FC(F)(F)c1ccc(N2CCC(Oc3cc(C(F)(F)F)cc(C(F)(F)F)c3)CC2)nc1` [1-79]: 100% and “effective”. As for `FC(F)(F)c1ccc(N2CCC(Oc3c(Cl)cc(OCC=C(Cl)Cl)c(Cl)c3Cl)CC2)nc1` [1-166], in assay [2], the “killed 100% of the army worms, or inhibited their feed consumptions, in comparison with a solvent control area, to 10% or less (effective)” value was “effective”.

For `O=[N+]([O-])c1ccc(OC2CCN(c3ccc(C(F)(F)F)cn3)CC2)cc1C(F)(F)F` [1-39, 4-[4-nitro-3-(trifluoromethyl)phenoxy]-1-[5-(trifluoromethyl)-2-pyridyl]-piperidine], the “killed 100% of the army worms, or inhibited their feed consumptions, in comparison with a solvent control area, to 10% or less (effective)” value in assay [2] is given as “effective”. As to `CC(C)(C)COc1cc(C(F)(F)F)ccc1OC1CCN(c2ccc(C(F)(F)F)cn2)CC1` [1-114], in assay [1], the “rate of killed adults” value is listed as 100%. In addition, the “killed 100% of the army worms, or inhibited their feed consumptions, in comparison with a solvent control area, to 10% or less (effective)” value in assay [2] is reported as “effective”. In the case of `FC(F)(F)c1ccc(OC2CCN(c3ncc(C(F)(F)F)cc3Cl)CC2)cc1` [1-83], the “killed 100% of the army worms, or inhibited their feed consumptions, in comparison with a solvent control area, to 10% or less (effective)” value in assay [2] was “effective”.

`FC(F)(F)c1cnc(N2CCC(Oc3c(Cl)cc(OCC=C(Cl)Cl)c(Cl)c3Cl)CC2)c(Cl)c1` [1-165]: the “killed 100% of the army worms, or inhibited their feed consumptions, in comparison with a solvent control area, to 10% or less (effective)” value in assay [2] was “effective”. On the same count and under the same terms, for `CCCOc1cc(C(F)(F)F)ccc1OC1CCN(c2ccc(C(F)(F)F)cn2)CC1(C)C(=O)OCC` (stereo not drawn) [1-95] the value was “effective”. For `CCCOc1cc(C(F)(F)F)ccc1OC1C2CCC1CN(c1ccc(C(F)(F)F)cn1)C2` (stereo not drawn) [5-97, 8β-[2-propoxy-4-(trifluoromethyl)phenoxy]-3-[5-(trifluoromethyl)-2-pyridyl]-3-azabicyclo[3.2.1]octane], in assay [1], the “rate of killed adults” value was found to be 100%. The “killed ... of the adults (eggs laid for 3 days investigated whether they could grow to adults on the eleventh day)” value (“killed ... of the adults” for short) in assay [3] is 100%. In the case of `CCOC(C)OCc1cc(C(F)(F)F)ccc1OC1C2CCC1CN(c1ccc(C(F)(F)F)cn1)C2` (stereo not drawn) [5-229], the “rate of killed adults” value in assay [1] worked out at 100%. In addition, the “killed ... of the adults” value in assay [3] is recorded as 100%. Consider `C=CCOc1cc(C(F)(F)F)ccc1OC1C2CCC1CN(c1ccc(C(F)(F)F)cn1)C2` (stereo not drawn) [5-149], for which the “rate of killed adults” value in assay [1] was 100%. Also, in assay [3], the “killed ... of the adults” value came to 100%. As to `Cc1coc(-c2cc(C(F)(F)F)ccc2O[C@@H]2[C@@H]3CC[C@H]2CN(c2ccc(C(F)(F)F)cn2)C3)n1` [5-261], the “rate of killed adults” value in assay [1] was 100%. Further, the “killed ... of the adults” value in assay [3] amounted to 100%. As to `CC(C)(C)OC(=O)c1cc(C(F)(F)F)ccc1O[C@@H]1[C@@H]2CC[C@H]1CN(c1ccc(C(F)(F)F)cn1)C2` [5-257], in assay [1], the “rate of killed adults” value was 100%. Also, the “killed ... of the adults” value in assay [3] was determined as 100%. Regarding `COCOc1cc(C(F)(F)F)ccc1O[C@@H]1[C@@H]2CC[C@H]1CN(c1ccc(C#N)cn1)C2` [5-111], the “rate of killed adults” value in assay [1] is 100%. Besides, the “killed ... of the adults” value in assay [3] was found to be 100%.
